Measured values reported in patent US20080194539A1, “Phenyl Diazepane Carboxamides and Annelated Phenyl Piperazine Carboxamides Containing Oxygen and Used as Dopamine D3 Antagonists” (Schwarz Pharma AG, priority 2004, published 2008).
Where two headings read alike, the source gives them in different places.

Columns and labels:
human D3 [1] = biological target: T1, human D3 (Homo sapiens, UniProt P35462); details: compounds known from the prior art (WO 2004/004729), read-out: D3-bonding (Ki), comparative substance, cited from earlier work
T1 construct: expressed in transfected cells

D1-receptor = biological target: T2, D1-receptor (Sus scrofa, UniProt P50130); test: Radioligand binding, D1-receptor, porcine striatum membranes, [3H]SCH 23390; details: average of 2-6 experiments in triplicate
T2 construct: native membrane homogenates, obtained from porcine striatum; from tissue; host or cells: porcine striatum
Procedure: (§1) The biological activities of the compounds according to the invention were determined in radioligand binding investigations. All radioligand experiments were performed according to methods described by us (Hübner, H. et al. J. Med. Chem. 2000, 43, 756-762). For the measurement of the affinities to the receptors of the D2-family membrane homogenates of Chinese hamster ovary cells (CHO cells) were used, which stably express the human D2long-, the human D2short- (Hayes, G. et al. Mol. Endocrinol. 1992, 6, 920-926), the human D3- (Sokoloff, P. et al. Eur. J. Pharmacol. 1992, 225, 331-337) or the human D4.4-receptor sub-type, (Asghari, V. J. Neurochem. 1995, 65, 1157-1165) respectively. Basically the binding assays took place by incubation of the receptor homogenates with the radioligand [^3H]spiperone and the compounds under investigation in various concentrations. Determination of the affinities to the D1-receptor took place with native membrane homogenates, obtained from porcine striatum, and the D1-selective radioligands [^3H]SCH 23390.

dopamine D3 receptor = biological target: T3, dopamine D3 receptor (Homo sapiens, UniProt P35462); test: Mitogenesis assay, [3H]thymidine incorporation in D3 receptor-expressing cells; assay type: cell-based; details: for EC50: dose-effect curve, seven concentrations in quadruplicate; for Agonistic activity: with reference to the maximum effect of the full agonist quinpirol
T3 construct: expressed in transfected cells
Procedure: Here various concentrations of the compounds under investigation were incubated with D3 receptor-expressing cells and then the receptor-mediated stimulation of the mitogenesis rate was measured by incorporation of the radioactive marker [^3H]thymidine.

porcine α1-receptor = test: Radioligand binding, α1-receptor, porcine cortex membranes, [3H]prazosin; details: average of 2-6 experiments in triplicate, read-out: Receptor binding Ki alpha1
Procedure: (§2) Measurement of the binding strengths of the compounds to the serotonin-receptor subtypes 5-HT1a and 5-HT2 was carried out according to methods described by us (Heindl, C. et al. Tetrahedron: Asymmetry 2003, 14, 3141-3152). For this we incubated porcine cortex-membrane preparations with the radioligands [^3H]8-OH-DPAT (for 5-HT1a) or [^3H]ketanserin (5-HT2) and the compounds in various concentrations. In the same way the affinity of the test compounds to the porcine α1-receptor was investigated, wherein porcine cortex-membrane preparations and the α1-selective radioligand [^3H]prazosin were used.

5-HT2 = biological target: T4, 5-HT2 (Sus scrofa, UniProt P50129); test: Radioligand binding, 5-HT2, porcine cortex membranes, [3H]ketanserin; details: average of 2-6 experiments in triplicate, read-out: Receptor binding Ki 5-HT2
T4 construct: we incubated porcine cortex-membrane preparations; from tissue; host or cells: porcine cortex
Procedure: as §2

human D2short = biological target: T5, human D2short (Homo sapiens, UniProt P14416); test: Radioligand binding, human D2short in CHO cell membranes, [3H]spiperone; details: human receptor in CHO membranes, average of 2-6 experiments in triplicate
T5 construct: expressed in transfected cells
Procedure: as §1

human D3 [2] = biological target: T1, human D3; test: Radioligand binding, human D3 in CHO cell membranes, [3H]spiperone
Procedure: as §1

human D4.4 = biological target: T6, human D4.4 (Homo sapiens, UniProt P21917); test: Radioligand binding, human D4.4 in CHO cell membranes, [3H]spiperone; details: human D4.4 in CHO membranes, average of 2-6 experiments in triplicate, read-out: Receptor binding Ki D4
T6 construct: expressed in transfected cells
T6 sequence (P21917 1-419): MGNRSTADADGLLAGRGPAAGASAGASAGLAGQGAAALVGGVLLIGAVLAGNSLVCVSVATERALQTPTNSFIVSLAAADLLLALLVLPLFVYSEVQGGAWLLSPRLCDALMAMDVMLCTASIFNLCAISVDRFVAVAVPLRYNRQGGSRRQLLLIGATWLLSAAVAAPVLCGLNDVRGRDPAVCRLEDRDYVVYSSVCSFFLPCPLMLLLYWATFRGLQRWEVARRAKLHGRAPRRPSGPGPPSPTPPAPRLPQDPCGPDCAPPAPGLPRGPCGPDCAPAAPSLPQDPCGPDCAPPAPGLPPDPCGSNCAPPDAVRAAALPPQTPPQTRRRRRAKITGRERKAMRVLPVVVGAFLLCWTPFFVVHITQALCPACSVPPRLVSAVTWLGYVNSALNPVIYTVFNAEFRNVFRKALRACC
Procedure: as §1

human D2long = biological target: T7, human D2long (Homo sapiens, UniProt P14416); test: Radioligand binding, human D2long in CHO cell membranes, [3H]spiperone; details: human receptor in CHO membranes, average of 2-6 experiments in triplicate
T7 construct: expressed in transfected cells
Procedure: as §1

5-HT1a = biological target: T8, 5-HT1a (Sus scrofa, UniProt A0A4X1UTF5); test: Radioligand binding, 5-HT1a, porcine cortex membranes, [3H]8-OH-DPAT; details: porcine 5-HT1a, average of 2-6 experiments in triplicate, read-out: Receptor binding Ki 5-HT1
T8 construct: we incubated porcine cortex-membrane preparations; from tissue; host or cells: porcine cortex
T8 sequence (A0A4X1UTF5 1-422): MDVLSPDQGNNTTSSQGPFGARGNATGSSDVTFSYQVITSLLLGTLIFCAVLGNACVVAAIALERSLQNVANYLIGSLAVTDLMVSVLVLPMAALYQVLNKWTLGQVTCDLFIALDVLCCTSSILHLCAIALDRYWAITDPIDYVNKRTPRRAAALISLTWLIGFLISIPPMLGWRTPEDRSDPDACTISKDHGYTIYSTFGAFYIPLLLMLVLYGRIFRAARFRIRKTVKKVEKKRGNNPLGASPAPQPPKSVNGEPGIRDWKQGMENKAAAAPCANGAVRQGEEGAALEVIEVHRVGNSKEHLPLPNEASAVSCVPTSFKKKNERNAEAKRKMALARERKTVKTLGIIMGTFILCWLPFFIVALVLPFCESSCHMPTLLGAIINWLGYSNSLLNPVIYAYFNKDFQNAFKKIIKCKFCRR
Procedure: as §2

[3] = Table 1c, read-out: D3-bonding (Ki), substance according to the invention
[4] = human receptor in CHO membranes, [3H]spiperone, average of 2-6 experiments in triplicate, read-out: Receptor binding Ki D3
[5] = Table 1a, read-out: D3-bonding (Ki), substance according to the invention
[6] = Table 1b, read-out: D3-bonding (Ki), substance according to the invention

T7 sequence (P14416 whole entry): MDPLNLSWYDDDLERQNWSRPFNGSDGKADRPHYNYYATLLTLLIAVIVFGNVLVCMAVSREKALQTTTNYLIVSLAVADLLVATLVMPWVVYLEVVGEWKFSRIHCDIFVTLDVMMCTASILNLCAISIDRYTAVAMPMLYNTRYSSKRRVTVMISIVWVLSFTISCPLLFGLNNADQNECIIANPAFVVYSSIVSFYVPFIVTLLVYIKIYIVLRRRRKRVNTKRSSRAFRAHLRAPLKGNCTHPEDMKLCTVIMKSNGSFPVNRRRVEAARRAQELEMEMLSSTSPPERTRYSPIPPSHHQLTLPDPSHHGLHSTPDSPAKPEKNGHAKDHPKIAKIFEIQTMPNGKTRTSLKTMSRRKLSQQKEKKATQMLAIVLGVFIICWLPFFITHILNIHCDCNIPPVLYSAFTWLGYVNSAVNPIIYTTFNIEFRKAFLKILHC
T5 sequence (P14416 1-414 isoform P14416-2): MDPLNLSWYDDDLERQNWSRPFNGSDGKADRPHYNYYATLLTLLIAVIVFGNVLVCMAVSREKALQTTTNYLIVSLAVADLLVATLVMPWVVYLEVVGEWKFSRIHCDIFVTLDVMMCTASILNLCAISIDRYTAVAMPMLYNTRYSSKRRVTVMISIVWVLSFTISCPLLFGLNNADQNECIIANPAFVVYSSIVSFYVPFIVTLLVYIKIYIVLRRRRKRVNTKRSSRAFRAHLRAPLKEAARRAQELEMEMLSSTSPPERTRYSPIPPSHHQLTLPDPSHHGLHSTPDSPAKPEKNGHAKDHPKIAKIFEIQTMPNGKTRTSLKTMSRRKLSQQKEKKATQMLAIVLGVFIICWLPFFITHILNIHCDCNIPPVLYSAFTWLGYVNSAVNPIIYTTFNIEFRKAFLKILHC
T4 sequence (P50129 whole entry): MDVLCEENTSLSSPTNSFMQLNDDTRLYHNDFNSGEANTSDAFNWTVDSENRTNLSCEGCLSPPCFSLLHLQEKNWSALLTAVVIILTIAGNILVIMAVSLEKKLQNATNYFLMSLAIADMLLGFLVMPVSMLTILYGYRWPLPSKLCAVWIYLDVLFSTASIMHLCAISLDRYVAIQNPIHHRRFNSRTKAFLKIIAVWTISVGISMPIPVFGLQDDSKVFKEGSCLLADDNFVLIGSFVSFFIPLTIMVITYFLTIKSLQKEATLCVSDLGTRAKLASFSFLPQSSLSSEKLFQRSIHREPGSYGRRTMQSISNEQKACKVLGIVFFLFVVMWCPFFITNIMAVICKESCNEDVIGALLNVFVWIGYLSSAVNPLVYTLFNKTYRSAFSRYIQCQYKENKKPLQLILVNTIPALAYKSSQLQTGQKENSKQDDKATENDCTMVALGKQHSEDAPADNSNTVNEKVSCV
T2 sequence (P50130 whole entry): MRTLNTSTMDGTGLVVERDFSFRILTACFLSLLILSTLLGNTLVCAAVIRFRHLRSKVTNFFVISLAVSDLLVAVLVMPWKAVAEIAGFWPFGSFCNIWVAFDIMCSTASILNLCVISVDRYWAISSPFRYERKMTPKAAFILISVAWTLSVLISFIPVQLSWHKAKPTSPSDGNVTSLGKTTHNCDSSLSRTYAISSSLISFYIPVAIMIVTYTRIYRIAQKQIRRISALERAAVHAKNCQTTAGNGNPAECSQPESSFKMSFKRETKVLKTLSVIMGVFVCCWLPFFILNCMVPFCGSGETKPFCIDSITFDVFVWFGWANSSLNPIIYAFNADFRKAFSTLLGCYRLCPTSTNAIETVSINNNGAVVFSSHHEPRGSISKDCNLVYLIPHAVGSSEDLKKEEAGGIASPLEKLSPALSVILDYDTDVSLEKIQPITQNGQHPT
T1 sequence (P35462 whole entry): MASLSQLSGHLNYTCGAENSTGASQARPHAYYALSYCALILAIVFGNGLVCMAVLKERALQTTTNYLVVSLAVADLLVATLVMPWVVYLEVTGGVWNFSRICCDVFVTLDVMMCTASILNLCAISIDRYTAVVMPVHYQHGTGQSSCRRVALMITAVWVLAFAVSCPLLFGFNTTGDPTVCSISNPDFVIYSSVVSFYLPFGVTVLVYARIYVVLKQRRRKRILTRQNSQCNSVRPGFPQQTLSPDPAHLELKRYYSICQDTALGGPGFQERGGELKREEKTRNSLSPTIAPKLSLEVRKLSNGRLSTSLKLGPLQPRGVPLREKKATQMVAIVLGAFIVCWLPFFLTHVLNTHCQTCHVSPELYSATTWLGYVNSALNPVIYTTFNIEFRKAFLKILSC
T3 sequence (P35462 whole entry): as above

**Q.** Which Ki (human D3 [1]; Table 1a) does the source give for `N#Cc1ccc2cc(C(=O)NCCCCN3CCN(c4cccc(Cl)c4Cl)CC3)[nH]c2c1` here?
**A.** Its Ki is 0.35 nM.

**Q.** For `N#Cc1ccc2sc(C(=O)NCCCCN3CCN(c4cccc(Cl)c4Cl)CC3)cc2c1`, which Ki (human D3 [1]; Table 1c) is on record?
**A.** Its Ki is 0.25 nM.

**Q.** With `O=C(NCCCCN1CCN(c2cccc3c2OCC3)CC1)c1cc2ccccc2s1` [Example 1, N-(4-(4-(2,3-dihydrobenzofuran-7-yl)piperazin-1-yl)butyl)benzo[b]thiophen-2-ylcarbamide] as the compound, how does the Ki (D1-receptor) read?
**A.** Its Ki is 260 nM.

**Q.** And the EC50 (dopamine D3 receptor)?
**A.** Its EC50 is 3.2 nM.

**Q.** What about the Agonistic activity (dopamine D3 receptor) of the same compound?
**A.** The Agonistic activity was 42%.

**Q.** What about the Ki (porcine α1-receptor) of the same compound?
**A.** The Ki was 4.2 nM.

**Q.** And the Ki (5-HT2)?
**A.** Its Ki is 100 nM.

**Q.** What about the Ki (human D2short) of the same compound?
**A.** The Ki was 50 nM.

**Q.** What about the Ki (human D3 [2]; [3]) of the same compound?
**A.** The Ki was 0.31 nM.

**Q.** And the Ki (human D3 [2]; [4])?
**A.** Its Ki is 0.31 nM.

**Q.** And the Ki (human D4.4)?
**A.** The Ki was 65 nM.

**Q.** And the Ki (human D2long)?
**A.** The Ki was 73 nM.

**Q.** And the Ki (5-HT1a)?
**A.** The Ki was 18 nM.

**Q.** Which results are given for `O=C(NCCCCN1CCN(c2cccc3c2OCC3)CC1)c1cc2ccccc2[nH]1` [Example 2, N-(4-(4-(2,3-dihydrobenzofuran-7-yl)piperazin-1-yl)butyl)indol-2-ylcarbamide]?
**A.** Ki (D1-receptor): 300 nM; Agonistic activity (dopamine D3 receptor): 0%; Ki (porcine α1-receptor): 2 nM; Ki (5-HT2): 110 nM; Ki (human D2short): 27 nM; Ki (human D3 [2]; [5]): 0.35 nM; Ki (human D3 [2]; [4]): 0.16 nM; Ki (human D4.4): 22 nM; Ki (human D2long): 45 nM; Ki (5-HT1a): 30 nM

**Q.** Which Ki (D1-receptor) does the source give for `O=C(NCCCCN1CCN(c2cccc3c2OCCC3)CC1)c1cc2ccccc2s1` [Example 3, N-(4-(4-(chroman-8-yl)piperazin-1-yl)butyl)benzo[b]thiophen-2-ylcarbamide] here?
**A.** The Ki was 300 nM.

**Q.** And the EC50 (dopamine D3 receptor)?
**A.** The EC50 was 1.8 nM.

**Q.** What about the Agonistic activity (dopamine D3 receptor) of the same compound?
**A.** The Agonistic activity was 38%.

**Q.** What about the Ki (porcine α1-receptor) of the same compound?
**A.** The Ki was 4.6 nM.

**Q.** What about the Ki (5-HT2) of the same compound?
**A.** The Ki was 77 nM.

**Q.** And the Ki (human D2short)?
**A.** The Ki was 83 nM.

**Q.** What about the Ki (human D3 [2]; [3]) of the same compound?
**A.** Its Ki is 0.16 nM.

**Q.** What about the Ki (human D3 [2]; [4]) of the same compound?
**A.** Its Ki is 0.35 nM.

**Q.** What about the melting point of the same compound?
**A.** Its melting point is 134 °C.

**Q.** And the Ki (human D4.4)?
**A.** Its Ki is 50 nM.

**Q.** What about the Ki (human D2long) of the same compound?
**A.** Its Ki is 110 nM.

**Q.** What about the Ki (5-HT1a) of the same compound?
**A.** Its Ki is 17 nM.

**Q.** Which results are given for `O=C(NCCCCN1CCN(c2cccc3c2OCCC3)CC1)c1cc2ccccc2[nH]1` [Example 4, N-(4-(4-(chroman-8-yl)piperazin-1-yl)butyl)indol-2-ylcarbamide]?
**A.** Ki (D1-receptor): 290 nM; Agonistic activity (dopamine D3 receptor): 0%; Ki (porcine α1-receptor): 2.3 nM; Ki (5-HT2): 110 nM; Ki (human D2short): 22 nM; Ki (human D3 [2]; [5]): 0.17 nM; Ki (human D3 [2]; [4]): 0.17 nM; Ki (human D4.4): 34 nM; Ki (human D2long): 42 nM; Ki (5-HT1a): 20 nM

**Q.** For `O=C(NCCCCN1CCN(c2cccc3c2OCCCC3)CC1)c1cc2ccccc2s1` [Example 12, N-(4-(4-(2,3,4,5-tetrahydrobenzo[b]oxepin-9-yl)piperazin-1-yl)butyl)benzo[b]thiophen-2-ylcarbamide], which Ki (human D3 [2]; [3]) is on record?
**A.** Its Ki is 0.098 nM.

**Q.** What about the melting point of the same compound?
**A.** Its melting point is 124 °C.

**Q.** With `N#Cc1ccc2sc(C(=O)NCCCCN3CCN(c4cccc5c4OCCCC5)CC3)cc2c1` [Example 13, N-(4-(4-(2,3,4,5-tetrahydrobenzo[b]oxepin-9-yl)piperazin-1-yl)butyl)-5-cyanobenzo[b]thiophen-2-ylcarbamide] as the compound, how does the Ki (human D3 [2]; [3]) read?
**A.** The Ki was 0.097 nM.

**Q.** With `O=C(NCCCCN1CCN(c2cccc3c2OCCCC3)CC1)c1cc2ccccc2o1` [Example 14, N-(4-(4-(2,3,4,5-tetrahydrobenzo[b]oxepin-9-yl)piperazin-1-yl)butyl)benzofuran-2-ylcarbamide] as the compound, how does the Ki (human D3 [2]; [6]) read?
**A.** The Ki was 0.089 nM.

**Q.** Which Ki (human D3 [2]; [5]) does the source give for `O=C(NCCCCN1CCN(c2cccc3c2OCCCC3)CC1)c1cc2ccccc2[nH]1` [Example 16, N-(4-(4-(2,3,4,5-tetrahydrobenzo[b]oxepin-9-yl)piperazin-1-yl)butyl)indol-2-ylcarbamide] here?
**A.** Its Ki is 0.052 nM.

**Q.** For `N#Cc1ccc2cc(C(=O)NCCCCN3CCN(c4cccc5c4OCCCC5)CC3)[nH]c2c1` [Example 17, N-(4-(4-(2,3,4,5-tetrahydrobenzo[b]oxepin-9-yl)piperazin-1-yl)butyl)-6-cyanoindol-2-ylcarbamide], which Ki (human D3 [2]; [5]) is on record?
**A.** Its Ki is 0.075 nM.

**Q.** Which Ki (human D3 [2]; [6]) does the source give for “N-(4-(4-(2,3,4,5-tetrahydrobenzo[b]oxepin-9-yl)piperazin-1-yl)butyl)-5-bromobenzofuran-2-ylcarbamide [Example 15]” here?
**A.** The Ki was 0.11 nM.
